Data from patent US9771343B2, “2-alkyl-or-aryl-substituted tanshinone derivatives, and preparation method and application thereof” (Hangzhou Bensheng Pharmaceutical Co., Ltd., priority 2011, dated 2017).
≈ marks a conversion by molar mass, not a printed value.

Columns and labels:
MG63 (osteosarcoma) = test: MTT cell growth inhibition, MG63 cells, 72 h; format: cell-based, human; details: Homo sapiens, MG-63, 72 h
Protocol: (§1) The standard sample of tanshinone I (TA) and the 2-alkyl- or 2-aromatic-substituted tanshinone I derivatives of the present invention are sufficiently dissolved in dimethylsulfoxide to produce a stock solution of 10 mg/mL, which is refrigerated at 4° C. and stored in dark, and is diluted with a cell culture medium to the desired concentration prior to experimentation.
(§2) Obtaining 6000 well-growing human solid tumor cells and inoculating them into wells of a 96-well cell culture plate. The culture medium is DMEM High Glucose cell culture medium containing 10% fetal bovine serum. The plate is placed in a carbon dioxide cell incubator (5% CO2) at 37° C. and incubated for 24 hours. After adding the 2-alkyl- or 2-aromatic-substituted tanshinone I derivatives of different concentrations and mixing uniformly, the plate is placed in a carbon dioxide cell incubator (5% CO2) at 37° C. and incubated for 72 hours. Then the viable cell concentration is determined by MTT method. In this experiment, the cell viability in control group (not treated with any compound) is set as 100%, and the cell viability (%) after treatment by the compounds and the half maximum inhibitory concentration for the leukemia cell at 72 hours (IC50 value of 72 hours, μg/mL) are calculated.

[1] = tested on: H9 (acute lymphoblastic leukemia, ALL); test: MTT cell growth inhibition, H9 leukemia cells, 72 h; format: cell-based; details: H9, 72 h
Protocol: as §1, with “with” for “with a”, “to a” for “to the”
as §2, with “leukemia” for “human solid tumor”, “the RPMI-1640” for “DMEM High Glucose”, “serum.” for “serum. The plate is placed in a carbon dioxide cell incubator (5% CO2) at 37° C. and incubated for 24 hours.”, “adding on the second day” for “adding”, “uniformly, placing” for “uniformly,”, “plate” for “plate is placed”

[2] = tested on: SK-OV-3 (ovarian cancer cell); test: MTT cell growth inhibition, SK-OV-3 cells, 72 h; format: cell-based, human; details: Homo sapiens, SK-OV-3, 72 h
Protocol: as §1, §2

[3] = tested on: K562/adr (drug-resistant, chronic myeloid leukemia, CML); test: MTT cell growth inhibition, K562/adr leukemia cells, 72 h; format: cell-based; details: Homo sapiens, K562/Adr
Protocol: as §1, with “with” for “with a”, “to a” for “to the”
as §2, with “leukemia” for “human solid tumor”, “the RPMI-1640” for “DMEM High Glucose”, “serum.” for “serum. The plate is placed in a carbon dioxide cell incubator (5% CO2) at 37° C. and incubated for 24 hours.”, “adding on the second day” for “adding”, “uniformly, placing” for “uniformly,”, “plate” for “plate is placed”

[4] = tested on: Hela (human cervical cancer cell); test: MTT cell growth inhibition, Hela cells, 72 h; format: cell-based; details: Homo sapiens, HeLa, 72 h
Protocol: as §1, §2

[5] = tested on: MGC 803 (human gastric cancer cell); test: MTT cell growth inhibition, MGC 803 cells, 72 h; format: cell-based; details: Homo sapiens, MGC-803, 72 h
Protocol: as §1, §2

[6] = tested on: Hep G2 (human liver cancer cell); test: MTT cell growth inhibition, Hep G2 cells, 72 h; format: cell-based; details: Homo sapiens, HepG2, Hep G2, 72 h
Protocol: as §1, §2

[7] = tested on: Kasumi-1 (acute myeloid leukemia M2 type, AML-M2); test: MTT cell growth inhibition, Kasumi-1 leukemia cells, 72 h; format: cell-based; details: Homo sapiens, Kasumi-1, 72 h
Protocol: as §1, with “with” for “with a”, “to a” for “to the”
as §2, with “leukemia” for “human solid tumor”, “the RPMI-1640” for “DMEM High Glucose”, “serum.” for “serum. The plate is placed in a carbon dioxide cell incubator (5% CO2) at 37° C. and incubated for 24 hours.”, “adding on the second day” for “adding”, “uniformly, placing” for “uniformly,”, “plate” for “plate is placed”

[8] = tested on: CNE (nasopharyngeal carcinoma cell); test: MTT cell growth inhibition, CNE cells, 72 h; format: cell-based, human
Protocol: as §1, §2

[9] = tested on: PANC-1 (pancreatic cancer); test: MTT cell growth inhibition, PANC-1 cells, 72 h; format: cell-based, human; details: Homo sapiens, PANC-1, 72 h
Protocol: as §1, §2

PC-3 (prostate cancer) = test: MTT cell growth inhibition, PC-3 cells, 72 h; format: cell-based, human
Protocol: as §1, §2

[10] = tested on: Hep-2 (laryngeal carcinoma); test: MTT cell growth inhibition, Hep-2 cells, 72 h; format: cell-based, human; details: Homo sapiens, HEp-2, 72 h
Protocol: as §1, §2

[11] = tested on: Becap37 (human breast cancer cell); test: MTT cell growth inhibition, Becap37 cells, 72 h; format: cell-based; details: Homo sapiens, Becap-37, 72 h
Protocol: as §1, §2

[12] = tested on: Jurkat (acute lymphoblastic leukemia, ALL); test: MTT cell growth inhibition, Jurkat leukemia cells, 72 h; format: cell-based; details: Homo sapiens, 72 h
Protocol: as §1, with “with” for “with a”, “to a” for “to the”
as §2, with “leukemia” for “human solid tumor”, “the RPMI-1640” for “DMEM High Glucose”, “serum.” for “serum. The plate is placed in a carbon dioxide cell incubator (5% CO2) at 37° C. and incubated for 24 hours.”, “adding on the second day” for “adding”, “uniformly, placing” for “uniformly,”, “plate” for “plate is placed”

A549 (human lung cancer) = test: MTT cell growth inhibition, A549 cells, 72 h; format: cell-based; details: Homo sapiens, A549, 72 h
Protocol: as §1, §2

[13] = tested on: CaES-17 (esophageal cancer cell); test: MTT cell growth inhibition, CaES-17 cells, 72 h; format: cell-based, human; details: Homo sapiens, CaEs17, CaEs-17, 72 h
Protocol: as §1, §2

[14] = tested on: U87 MG (malignant glioma cell); test: MTT cell growth inhibition, U87 MG cells, 72 h; format: cell-based, human; details: Homo sapiens, U-87 MG, U87-MG, 72 h
Protocol: as §1, §2

[15] = tested on: RPMI8226 (multiple myeloma); test: MTT cell growth inhibition, RPMI8226 multiple myeloma cells, 72 h; format: cell-based, human; details: Homo sapiens, RPMI 8226, 72 h
Protocol: as §1, with “with” for “with a”, “to a” for “to the”
as §2, with “leukemia” for “human solid tumor”, “the RPMI-1640” for “DMEM High Glucose”, “serum.” for “serum. The plate is placed in a carbon dioxide cell incubator (5% CO2) at 37° C. and incubated for 24 hours.”, “adding on the second day” for “adding”, “uniformly, placing” for “uniformly,”, “plate” for “plate is placed”

[16] = tested on: NB4 (acute promyelocytic leukemia, AML); test: MTT cell growth inhibition, NB4 leukemia cells, 72 h; format: cell-based; details: NB4, 72 h
Protocol: as §1, with “with” for “with a”, “to a” for “to the”
as §2, with “leukemia” for “human solid tumor”, “the RPMI-1640” for “DMEM High Glucose”, “serum.” for “serum. The plate is placed in a carbon dioxide cell incubator (5% CO2) at 37° C. and incubated for 24 hours.”, “adding on the second day” for “adding”, “uniformly, placing” for “uniformly,”, “plate” for “plate is placed”

[17] = tested on: RKO (human colon adenocarcinoma cell); test: MTT cell growth inhibition, RKO cells, 72 h; format: cell-based
Protocol: as §1, §2

Cc1oc2c(c1C)C(=O)C(=O)c1c-2ccc2c(C)cccc12 [BS-TA-03]
IC50 (MG63 (osteosarcoma); read-out: IC50): 3.18 µg/mL (≈ 11 µM)
IC90 (MG63 (osteosarcoma); read-out: IC90): > 16 µg/mL
IC50 ([1]; read-out: IC50): 6.4 µg/mL (≈ 22 µM)
IC90 ([1]; read-out: IC90): > 16 µg/mL
IC50 ([2]; read-out: IC50): > 16 µg/mL
IC90 ([2]; read-out: IC90): > 16 µg/mL
IC50 ([3]; read-out: IC50): 8.84 µg/mL (≈ 30.4 µM)
IC90 ([3]; read-out: IC90): 28.7 µg/mL (≈ 98.7 µM)
IC50 ([4]; read-out: IC50): 4 µg/mL (≈ 13.8 µM)
IC90 ([4]; read-out: IC90): > 16 µg/mL
IC50 ([5]; read-out: IC50): 4.65 µg/mL (≈ 16 µM)
IC90 ([5]; read-out: IC90): 18.4 µg/mL (≈ 63.4 µM)
IC50 ([6]; read-out: IC50): 5.48 µg/mL (≈ 18.9 µM)
IC90 ([6]; read-out: IC90): > 16 µg/mL
IC50 ([7]; read-out: IC50): 9.66 µg/mL (≈ 33.3 µM)
IC90 ([7]; read-out: IC90): 30.3 µg/mL (≈ 104 µM)
IC50 ([8]; Homo sapiens, CNE, 72 h, read-out: IC50): 3.9 µg/mL (≈ 13.4 µM)
IC90 ([8]; Homo sapiens, CNE, 72 h, read-out: IC90): 97 µg/mL (≈ 334 µM)
anti-CNE activity (in words) ([8]; Table 2): good activity
IC50 ([9]; read-out: IC50): 3.46 µg/mL (≈ 11.9 µM)
IC90 ([9]; read-out: IC90): > 16 µg/mL
IC50 (PC-3 (prostate cancer); Homo sapiens, PC-3, 72 h, read-out: IC50): 4.99 µg/mL (≈ 17.2 µM)
IC90 (PC-3 (prostate cancer); Homo sapiens, PC-3, 72 h, read-out: IC90): 17.5 µg/mL (≈ 60.3 µM)
anti-PC-3 activity (in words) (PC-3 (prostate cancer); Table 2): good activity
IC50 ([10]; read-out: IC50): 9.17 µg/mL (≈ 31.6 µM)
IC90 ([10]; read-out: IC90): > 16 µg/mL
IC50 ([11]; read-out: IC50): 3.96 µg/mL (≈ 13.6 µM)
IC90 ([11]; read-out: IC90): > 16 µg/mL
IC50 ([12]; read-out: IC50): 1.88 µg/mL (≈ 6.48 µM)
IC90 ([12]; read-out: IC90): 6.97 µg/mL (≈ 24 µM)
IC50 (A549 (human lung cancer); read-out: IC50): 6.45 µg/mL (≈ 22.2 µM)
IC90 (A549 (human lung cancer); read-out: IC90): > 16 µg/mL
IC50 ([13]; read-out: IC50): 5.19 µg/mL (≈ 17.9 µM)
IC90 ([13]; read-out: IC90): 20.4 µg/mL (≈ 70.3 µM)
IC50 ([14]; read-out: IC50): 6.63 µg/mL (≈ 22.8 µM)
IC90 ([14]; read-out: IC90): 16.8 µg/mL (≈ 57.7 µM)
IC50 ([15]; read-out: IC50): 2 µg/mL (≈ 6.89 µM)
IC90 ([15]; read-out: IC90): 16.5 µg/mL (≈ 56.8 µM)
IC50 ([16]; read-out: IC50): 1.13 µg/mL (≈ 3.89 µM)
IC90 ([16]; read-out: IC90): 3.64 µg/mL (≈ 12.5 µM)
IC50 ([17]; Homo sapiens, RKO, 72 h, read-out: IC50): 1.35 µg/mL (≈ 4.65 µM)
IC90 ([17]; Homo sapiens, RKO, 72 h, read-out: IC90): > 16 µg/mL
anti-RKO activity (in words) ([17]; Table 2): good activity
